Laboratory results: article PMC12814185, “Receptor-Mediated Shuttling of a D‑Amino Acid Peptide Achieves High Nanomolar Cytosolic Concentrations” (Journal of the American Chemical Society, 2025)

Test system: HEK293 cells
Assay: Resazurin based cell viability assay, Nutlin-3a
Conditions: 72 h incubation, HEK293 and HEK293_CMKLR1-eYFP
Experimental: performed in DMEM with 10% FBS due to its higher pH buffering capacity compared to DMEM/F12 with […]
Calcium flux assay was performed with cells expressing CMKLR1 and the chimeric G protein Δ6Gαqi4myr.
The stably transfected COS-7_CMKLR1-eYFP_ Δ6Gαqi4myr cells were seeded at 25,000 cells per well into poly-ᴅ-lysine-coated 96-well plates (black µCLEAR, Greiner). The next day, cells were incubated with 2.3 µM Fluo-2-AM (Abcam) and 0.06% (v/v) Pluronic-F127 (Sigma) in assay buffer (2.5 mM probenecid (Sigma), 20 mM 4-(2-hydroxyethyl)-1-piperazineethanesulfonic acid (HEPES, Sigma) in Hanks' Balanced Salt Solution (HBSS, Biowest), pH 7.5) for 1 h. This solution was replaced by assay buffer, and basal Ca2+ signal (λex = 485 nm, λem = 525 nm) was measured for 20 s with a Flexstation 3 plate reader (Molecular Devices). Peptide dilutions were added, and the Ca2+ response was measured for 40 s. The maximum signal over baseline was calculated and normalized to peptide 1 (N3-cC9). Non-linear regression was performed using Prism 10 (GraphPad). Experiments were performed in technical duplicates and at least […]
Cells were then washed and a resazurin-based cell viability assay was performed. […] After 2h incubation, cell viability wa s measured using the fluorescence of resorufin (λex = 550 nm, λem = 595 nm). […]
Peptide internalization was evaluated by fluorescence microscopy. […]

## COc1ccc(C2=N[C@@H](c3ccc(Cl)cc3)[C@@H](c3ccc(Cl)cc3)N2C(=O)N2CCNC(=O)C2)c(OC(C)C)c1 [nutlin-3a]
  cytotoxicity: noncytotoxic response
